Assay results reported in PubChem BioAssay AID2740 (NMMLSC, 2010).
Values joined by “and” are separate entries in the source; they are usually repeats but may differ in a detail not shown here. Equal entries are not always repeated. Active and inactive are the calls of the source.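 How the source made its calls: active means compounds whose fitted half-maximal concentration for changing the GFP signal is at or below a set limit; inactive means the rest.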

Assay: TOR pathway RPL19A-GFP modulators, concentration series – cell-based, S. cerevisiae, flow cytometry, MLPCN hits, dose response (AID 2740);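 further: background is signal of the same compound in parental non-GFP s288c yeast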
Settings: S. cerevisiae RPL19A-GFP strain, flow cytometry fluorescence, 3 h; at 33 µM (top of the series)

Row | Structure (SMILES) | GFP fluorescence, lower = active (kMESF (background-subtracted))
1 | O=C1ON=C(c2ccc(Cl)cc2)/C1=C/c1ccc(O)cc1 | 40.8 (inactive)
2 | O=C1C=CC(=O)N1N(c1ccccc1)c1ccccc1 | 23.9 (inactive)
3 | COc1ccc(-c2cc(C(F)(F)F)nc(S(C)(=O)=O)n2)cc1 | 44.7 (inactive)
4 | CC(C)Oc1ccc(C(=O)/C=C2/C(=O)Nc3ccccc32)cc1 | 29 (inactive)
5 | O=C(c1ccc(Cl)c([N+](=O)[O-])c1)N1CCN(c2ccccc2)CC1 | 46.4 (inactive)
6 | CC(=O)N(\C=C/C=C/C=C1\Sc2ccccc2C1=O)c1ccccc1 | 56.1 (inactive)
7 | COCCN1C(=O)/C(=C/c2ccc(N3CCCC3)cc2C)SC1=S | 43 (inactive)
8 | Cc1ccc(N=c2ssnc2Cl)cc1 | 23 (inactive)
9 | N#Cc1c2ccc([N+](=O)[O-])cc2[n+]([O-])n1-c1ccccc1 | 51.8 (inactive)
10 | O=[N+]([O-])c1cnc(Sc2ccncn2)s1 | 31.1 (inactive)
11 | O=C1c2ccccc2C(=O)N1OS(=O)(=O)c1ccccc1 | 43.2 (inactive)
12 | O=C(Nc1nc(-c2ccccn2)cs1)C1COc2ccccc2O1 (centres undefined) | 21.1 (inactive)
13 | CC(C)[C@@]1(c2ccccc2)ON(c2ccccc2C(F)(F)F)C1=O | 40.1 (inactive)
14 | Oc1c(CN2CCCCC2)cc(Br)c2cccnc12 | 43.4 (inactive)
15 | Cc1c(Cc2ccccc2)c(NCCN(C)C)n2c(nc3ccccc32)c1C#N | 46.6 (inactive)
16 | O=S(=O)(c1ccccc1)c1ccc(C(F)(F)F)cn1 | 45.7 (inactive)
17 | Cc1cc(C)c(S(=O)(=O)ON2C(=O)c3ccccc3C2=O)cc1C | 25.8 (inactive)
18 | Oc1c(I)cc(Cl)c2cccnc12 | 25.8 (inactive)
19 | Cc1ccc(C)c(/C=C/C(=O)c2ccccc(=O)c2O)c1 | 15.8 (inactive)
20 | Cc1ccc(C(=O)Oc2oc(-c3ccco3)nc2C=Nc2ccc(Cl)cc2)cc1 | 40.8 (inactive)

Row | Structure (SMILES) | GFP fluorescence, lower = active (kMESF (background-subtracted))
21 | O=C(Oc1ccnc2cc(Cl)ccc12)N1CCCCCC1 | 25.6 (inactive)
22 | CC(=O)n1cc(C(C[N+](=O)[O-])SCCN)c2ccccc21 (centres undefined) | 21.4 (inactive)
23 | COc1cccc2c(=O)c(C(=O)NCc3cccs3)c[nH]c12 | 40.5 (inactive)
24 | O=C(Oc1oc(-c2ccco2)nc1C=Nc1ccc(Cl)cc1)c1ccco1 | 52.3 (inactive)
25 | Cc1c(C)c2ccc(Oc3ccc([N+](=O)[O-])cc3C(F)(F)F)c(C)c2oc1=O | 39.5 (inactive)
26 | CCc1nc2ccccc2c(=O)n1NC(=O)c1c(O)c2cccc3c2n(c1=O)CCC3 | 25.5 (inactive)
27 | COc1ccccc1-c1nc2s/c(=C\c3cccs3)c(=O)n2n1 | 36.9 (inactive)
28 | Clc1ccc(N=c2ssnc2Cl)cc1 | 36.9 (inactive)
29 | O=[N+]([O-])c1ccc(O)c2ncccc12 | 25.5 (inactive) and 19.3 (inactive)
30 | N/C(=N\OC(=O)c1ccccc1Cl)c1ccc(Cl)cc1 | 38.2 (inactive)
31 | CCc1cccc2sc(N3CCN(C(=O)c4ccc([N+](=O)[O-])o4)CC3)nc12 | 11.8 (inactive)
32 | Cc1ccccc1C(=O)NNC(=S)NC(=O)c1ccc(Cl)cc1Cl | 45.9 (inactive)
33 | COc1ccc(Cl)cc1C(Nc1cccnc1)c1ccc2cccnc2c1O (centres undefined) | 42.8 (inactive)
34 | O=C(/C=C/c1ccccc1)NC(=S)NNC(=O)Cc1cccs1 | 45.5 (inactive)
35 | Cc1ccc(/C=N/Nc2ncc(Cl)cc2Cl)s1 | 43.1 (inactive)
36 | O=C1c2cccc3c([N+](=O)[O-])ccc(c23)C(=O)N1CCc1ccccn1 | 47.1 (inactive)
37 | CCOC(=O)CSC1=NC(=O)/C(=C/c2ccc(OC)cc2)S1 | 43.8 (inactive)
38 | CCOc1ccc(C(C)=O)cc1N1C(=O)C2C3C=CC(O3)C2C1=O (centres undefined) | 42.4 (inactive)
39 | O=C(COc1ccc(F)cc1Cl)Nc1nc(-c2ccccn2)cs1 | 35.8 (inactive)
40 | CC(C)C(=O)NC(c1cccs1)c1cc([N+](=O)[O-])c2cccnc2c1O (centres undefined) | 31.9 (inactive)

Row | Structure (SMILES) | GFP fluorescence, lower = active (kMESF (background-subtracted))
41 | Cc1cc(O)c(C(=O)/C=C/c2ccc(Cl)cc2)c(=O)o1 | 33 (inactive)
42 | O=C1ON=C(c2ccccc2)/C1=C\c1ccco1 | 28.9 (inactive)
43 | CC1(c2ccccc2)ON(c2ccccc2C(F)(F)F)C1=O (centres undefined) | 40 (inactive)
44 | CN(C)C(=O)Oc1ccnc2cc(Cl)ccc12 | 38.2 (inactive)
45 | O=C(COc1ccccc1)NNC(=S)NC(=O)c1ccc(Cl)cc1Cl | 28 (inactive)
46 | CCc1ccc(C(=O)/C=C/c2ccc([N+](=O)[O-])o2)cc1 | 48.7 (inactive)
47 | C#CCOCCOCCOCCNc1nc(N2CCN(C(=O)CCCCCCCCCCNC(=O)[C@H](CCCCN)n3cc(CCCC(=O)O)nn3)CC2)nc(N2CCN(C(=O)CCCCCCCCCCNC(=O)[C@H](CCCN=C(N)N)n3cc(C[C@@H](C)CC)nn3)CC2)n1 | 27.1 (inactive)
48 | O=[N+]([O-])c1ccc(S(=O)(=O)c2ccccc2)nc1 | 29.6 (inactive)
49 | O=C(/C=C/c1ccccc1[N+](=O)[O-])c1ccccc1Br | 44.1 (inactive)
50 | CC(=O)Oc1ccc(N2C(=O)C3C4C=CC(CO)(O4)C3C2=O)cc1 (centres undefined) | 38.8 (inactive)
51 | O=C(Nc1nnc(-c2ccc(F)cc2)o1)c1cc(Cl)sc1Cl | 51.4 (inactive)
52 | N=C1/C(=C\c2coc3ccccc3c2=O)C(=O)N=C2SC(c3ccncc3)=NN12 | 25.5 (inactive)
53 | Cc1cc(C)c(C)c(S(=O)(=O)ON2C(=O)c3ccccc3C2=O)c1C | 49.1 (inactive)
54 | CS(=O)(=O)N1N=C(c2ccccc2)CC1c1ccc2c(c1)OCO2 (centres undefined) | 36.9 (inactive)
55 | O=C1CC(c2ccccc2)=NN1c1nc(-c2ccccc2)cs1 | 19.4 (inactive)
56 | O=C1c2cccc3c([N+](=O)[O-])ccc(c23)C(=O)N1O | 49.9 (inactive)
57 | Cc1ccc(C(=O)/C=C/C(=O)c2ccc(C)cc2)cc1 | 47.5 (inactive)
58 | COc1ccc(C(=O)/C=C2/C(=O)Nc3ccccc32)cc1 | 38 (inactive)
59 | O=C(CCc1ccccc1)NNC(=S)NC(=O)c1ccccc1 | 44.5 (inactive)
